Entries after “also recorded” stand apart in the source; their conditions may differ.
Tests used:
zebrafish embryos [1] = assay: Embryo analysis at 72 hpf (blood circulation and ISVs development); assay type: in vivo; conditions: 72 hpf
Description: Embryos from the Flk1:copGFP line were treated with the indicated compounds at 22–23 hpf in 500 µl of E3 in p24 well plates (5 embryos per well). After 48 hours of treatment embryos were anesthetized with 10 µl Tricaine (final concentration 0.02%) and analyzed for the presence of blood circulation and ISVs development using a Leica M205 FA stereoscope equipped with a Hamamatsu C10600 camera.

zebrafish embryos [2] = assay: Automated angiogenesis assay (ISV formation), Flk1:copGFP embryos treated at 22-26 hpf, read at 48 hpf; assay type: in vivo; conditions: for Angiog. inhibition: presence or absence of an anti-angiogenic effect, 0.01-100 µM; for Anti-angiogenic phenotype (ISVs / DLAV): treated at 24 hpf, checked at 48 hpf
Description: In the angiogenesis assay, the fluorescent images taken were processed using AxioVision 4.6.3 and a macro was developed to quantify an indirect measure of the area of the ISVs. […] However, we usually include a manual counting to offer a more detailed measurement of effect.
In the automatic analysis of angiogenesis, it is first necessary to perform a sequence of automated filtering functions on the image to extract information, define the region of interest (ROI), that in this case is the part of the tail containing the ISVs, and allow the measurement of the embryo length. Recovering a previous image, new filtering functions are applied to the ROI. A gradient image containing the ISVs, the DLAV (Dorsal Longitudinal Anastomotic Vessel), the PCV and the DA is created. Next, fluorescent areas that should not be quantified are discarded. Finally, only the areas comprised between the ISVs, the DLAV and the PCV or the DA are measured (Figure 4). In that way, when the vessels are incomplete or the DLAV is not present, an enclosed area is not present and therefore not measured.
The means obtained from the treated embryos were compared with the control mean. When statistically significant differences were detected a deeper analysis was done manually. In this case the parameters quantified were:
• The total number of ISVs present in the trunk of the embryos (from where the largest bulge of the yolk ends to the end of the tail). • Number of complete ISVs (reached the dorsal part of the embryo and formed the DLAV).
A curve of six concentrations (0.01, 0.1, 1, 10, 30 and 100 µM) was performed for all of them. […] IC50 was calculated when a clear dose-dependent anti-angiogenesis effect was detected. Otherwise, the minimum dose at which the inhibition of angiogenesis was observed is shown (Table 4).
At this time, chorions were removed with protease from Streptomyces griseus (Sigma-Aldrich) (1.5 mg/ml for 6 minutes) and the embryos were sorted and dispensed 1 per well in a 96 well assay plate. Each experimental condition was tested in a row with ten embryos. Embryos were dispensed in an average final volume of 90 µl of E3 media. 90 µl of the test items (DMSO and positive control KRN633 included) previously diluted 100 times were dispensed into each well of the assay plate containing the embryos to get the final volume of 180 µl and the desired final concentration.
The microscope scanned the wells by columns and a bright field image and a fluorescent image (2.5×magnification) were acquired per well. Then, the image analysis was performed and the result file generated.
Statistical analysis and graphical representation of the data were performed using SSPS (Statistical Package for the Social Sciences) software and Prism (Graph Pad Software) for IC50 calculations (non linear regression, sigmoidal dose-response with variable slope). […] In the angiogenesis assay, for comparisons between two groups, two-tailed t-test was used assuming unequal variances. For comparisons between more than two groups one-way analysis of variance followed by Dunnett’s post-test was applied to compare each data point with vehicle control.

[3] = Dilution of compound in E3 medium; assay type: physicochemical

Row | Behaviour after dilution in E3 medium [3] | Structure (SMILES) | Blood circulation (zebrafish embryos [1]) | ISVs appearance (zebrafish embryos [1]) | Efective concentration (minimum concentration that showed an effect) (zebrafish embryos [2]; given when IC50 could not be calculated) [µM] | Angiog. inhibition (zebrafish embryos [2]) | Anti-angiogenic phenotype (ISVs / DLAV) (zebrafish embryos [2]) | Inhibition of angiogenesis at maximum dose tested in medium (zebrafish embryos [2]; 10 µM in E3 medium)
1 |  | CCN(CC)CCCCNc1ncc2cc(-c3cc(OC)cc(OC)c3)c(NC(=O)NC(C)(C)C)nc2n1 [PD173074] | impaired blood circulation | thinner ISVs that were disrupted in some cases | 100 | Yes | moderate effect that did not increase with higher doses; also recorded: inhibit proper development of the DLAV; also recorded: thinner ISVs rather than incomplete vessel formation | 
2 | precipitated | CC(=O)O[C@H]1C(=O)[C@@]2(C)[C@H]([C@H](OC(=O)c3ccccc3)[C@]3(O)C[C@H](OC(=O)[C@H](O)[C@@H](NC(=O)c4ccccc4)c4ccccc4)C(C)=C1C3(C)C)[C@]1(OC(C)=O)CO[C@@H]1C[C@@H]2O [Paclitaxel] |  |  |  | Yes | the formation of ISVs was perturbed with defective or total absence of sprouting | not enough to induce inhibition of angiogenesis
